According to patent US20160129011A1, “BICYCLO 2,3-BENZODIAZEPINES AND SPIROCYCLICALLY SUBSTITUTED 2,3-BENZODIAZEPINES” (BAYER PHARMA AKTIENGESELLSCHAFT, priority 2013, published 2016):

The compounds below were run against T1, BRD4 (BD1) (Homo sapiens, UniProt O60885) (assay: Binding assay BRD4/acetylated peptide H4 (TR-FRET protein-protein interaction assay)). Settings: BRD4 (BD1) / acetylated histone H4 peptide.
T1 construct: longer constructs also being possible, preferably amino acids 44-168; made in house; host or cells: E. coli
Text: To assess the BRD4 binding strength of the substances described in this application, the ability thereof to inhibit the interaction between BRD4 (BD1) and acetylated histone H4 in a dose-dependent manner was quantified.
For this purpose, a time-resolved fluorescence resonance energy transfer (TR-FRET) assay was used, which measures the binding between N-terminally His6-tagged BRD4 (BD1) (amino acids 67-152, longer constructs also being possible, preferably amino acids 44-168) and a synthetic acetylated histone H4 (Ac—H4) peptide with sequence GRGK(Ac)GGK(Ac)GLGK(Ac)GGAK(Ac)RHGSGSK-biotin. The recombinant BRD4 protein produced in-house according to Filippakopoulos et al., Nature, 2010, 468:1119-1123 was expressed in E. coli and purified by means of (Ni-NTA) affinity and (Sephadex G-75) size exclusion chromatography. The Ac—H4 peptide can be purchased, for example, from Biosyntan (Berlin, Germany).
In the assay, typically 11 different concentrations of each substance (0.1 nM, 0.33 nM, 1.1 nM, 3.8 nM, 13 nM, 44 nM, 0.15 μM, 0.51 μM, 1.7 μM, 5.9 μM and 20 μM) were analysed as duplicates on the same microtitre plate. For this purpose, 100-fold concentrated solutions in DMSO were prepared by serial dilutions (1:3.4) of a 2 mM stock solution into a clear, 384-well microtitre plate (Greiner Bio-One, Frickenhausen, Germany). From this, 50 nl were transferred into a black test plate (Greiner Bio-One, Frickenhausen, Germany). The test was started by the addition of 2 μl of a 2.5-fold concentrated BRD4 solution (final concentration typically 10 nM in the 5 μl of reaction volume) in aqueous assay buffer [50 mM HEPES pH 7.5, 50 mM sodium chloride (NaCl), 0.25 mM CHAPS and 0.05% serum albumin (BSA)] to the substances in the test plate. This was followed by a 10-minute incubation step at 22° C. for the pre-equilibration of putative complexes between BRD4 and the substances.
The mixture was then incubated in the dark at 22° C. for one hour and then at 4° C. for at least 3 hours and for no longer than overnight. The formation of BRD4/Ac—H4 complexes was determined by the measurement of the resonance energy transfer from the streptavidin-Eu cryptate to the anti-6His-XL665 antibody present in the reaction. For this purpose, the fluorescence emission was measured at 620 nm and 665 nm after excitation at 330-350 nm in a TR-FRET measuring instrument, for example a Rubystar or Pherastar (both from BMG Lab Technologies, Offenburg, Germany) or a Viewlux (Perkin-Elmer). The ratio of the emissions at 665 nm and at […] was taken as an indicator of the amount of BRD4/Ac—H4 complexes formed.
The data (ratios) obtained were normalized, with 0% inhibition corresponding to the mean from the measurements for a set of controls (typically 32 data points) in which all the reagents were present. In these, in place of test substances, 50 nl of DMSO (100%) were used. Inhibition of 100% corresponded to the mean from the measurements for a set of controls (typically 32 data points) in which all the reagents except BRD4 were present. The IC50 was determined by regression analysis based on a 4-parameter equation (minimum, maximum, IC50, Hill; Y=max+(min−max)/(1+(X/IC50)^Hill)).
Work on `CNC(=O)N1N=C(c2ccc(N3CC4(CCS4(=O)=O)C3)cc2)c2cc(OC)c(OC)cc2CC1C` (racemic) [Example 3, 1-[4-(1,1-dioxido-1-thia-6-azaspiro[3.3]hept-6-yl)phenyl]-7,8-dimethoxy-N,4-dimethyl-4,5-dihydro-3H-2,3-benzodiazepine-3-carboxamide] yielded an IC50 of 20 nM. For `CNC(=O)N1N=C(c2ccc(N3CC4(CCS4(=O)=O)C3)cc2)c2cc(-n3nc(C)cc3C)ccc2CC1C` (racemic) [Example 17, (±)-8-(3,5-dimethyl-1H-pyrazol-1-yl)-1-[4-(1,1-dioxido-1-thia-6-azaspiro[3.3]hept-6-yl)phenyl]-N,4-dimethyl-4,5-dihydro-3H-2,3-benzodiazepine-3-carboxamide], the IC50 was 40 nM. In the case of `CNC(=O)N1N=C(c2ccc(N3CCC4(CC3)CNC(=O)C4)cc2)c2cc(OC)c(OC)cc2CC1C` (racemic) [Example 28, (±)-7,8-Dimethoxy-N,4-dimethyl-1-[4-(3-oxo-2,8-diazaspiro[4.5]dec-8-yl)phenyl]-4,5-dihydro-3H-2,3-benzodiazepine-3-carboxamide], the IC50 is reported as 100 nM. `CNC(=O)N1N=C(c2ccc(N3CCC4(CCN(C)C4)CC3)cc2)c2cc(OC)c(OC)cc2CC1C` (racemic) [Example 31, (±)-7,8-dimethoxy-N,4-dimethyl-1-[4-(2-methyl-2,8-diazaspiro[4.5]dec-8-yl)phenyl]-4,5-dihydro-3H-2,3-benzodiazepine-3-carboxamide] gave an IC50 of 100 nM. `CNC(=O)N1N=C(c2ccc(N3CCC4(CC3)COC(=O)N4)cc2)c2cc(OC)c(OC)cc2CC1C` (racemic) [Example 32] showed an IC50 of 110 nM. For `CNC(=O)N1N=C(c2ccc(N3CC4(C3)CS(=O)(=O)C4)cc2)c2cc(OC)c(OC)cc2CC1C` (racemic) [Example 34, (±)-1-[4-(2,2-dioxido-2-thia-6-azaspiro[3.3]hept-6-yl)phenyl]-7,8-dimethoxy-N,4-dimethyl-4,5-dihydro-3H-2,3-benzodiazepine-3-carboxamide], the IC50 was 70 nM. For `CNC(=O)N1N=C(c2ccc(N3C4CCC3CC(=O)NC4)cc2)c2cc(OC)c(OC)cc2CC1C` (racemic) [Example 39, (±)-7,8-Dimethoxy-N,4-dimethyl-1-[4-(4-oxo-3,9-diazabicyclo[4.2.1]non-9-yl)phenyl]-4,5-dihydro-3H-2,3-benzodiazepine-3-carboxamide], the IC50 was 120 nM. With `CNC(=O)N1N=C(c2ccc(N3C(=O)[C@@H]4CC[C@H]3C4)cc2)c2cc(OC)c(OC)cc2C[C@@H]1C` (relative stereo) [Example 2, {1S-[1R*,2(S*),4S*]}-7,8-dimethoxy-N,4-dimethyl-1-[4-(-3-oxo-2-azabicyclo[2.2.1]hept-2-yl)phenyl]-4,5-dihydro-3H-2,3-benzodiazepine-3-carboxamide] the IC50 was 20 nM. Compound `CNC(=O)N1N=C(c2ccc(N3C[C@@H]4C[C@H]3CN4C)cc2)c2cc(OC)c(OC)cc2C[C@@H]1C` (relative stereo) [Example 40.2, [1S-[1R*,2(R*),4R*]]-7,8-Dimethoxy-N,4-dimethyl-1-[4-(5-methyl-2,5-diazabicyclo[2.2.1]hept-2-yl)phenyl]-4,5-dihydro-3H-2,3-benzodiazepine-3-carboxamide] has an IC50 of 520 nM. `CNC(=O)N1N=C(c2ccc(F)c(N3C[C@@H]4C[C@H]3CN4C)c2)c2cc(OC)c(OC)cc2C[C@H]1C` (relative stereo) [Example 41.1, [1S-(1R*,2(S*),4R*)]-1-[4-fluoro-3-(5-methyl-2,5-diazabicyclo[2.2.1]hept-2-yl)phenyl]-7,8-dimethoxy-4,5-dihydro-N,4-dimethyl-3H-2,3-benzodiazepine-3-carboxamide] showed an IC50 of 16500 nM. `CNC(=O)N1N=C(c2ccc(F)c(N3C[C@@H]4C[C@H]3CN4C)c2)c2cc(OC)c(OC)cc2C[C@@H]1C` (relative stereo) [Example 41.2, [1S-(1R*,2(R*),4R*)]-1-[4-fluoro-3-(5-methyl-2,5-diazabicyclo[2.2.1]hept 2-yl)phenyl]-7,8-dimethoxy-4,5-dihydro-N,4-dimethyl-3H-2,3-benzodiazepine-3-carboxamide] was tested, and the IC50 was 380 nM. Work on `CNC(=O)N1N=C(c2ccc(N3CC4(CCS4(=O)=O)C3)cc2)c2cc(OC)c(OC)cc2C[C@H]1C` [Example 3.2, (4R)-1-[4-(1,1-Dioxido-1-thia-6-azaspiro[3.3]hept-6-yl)phenyl]-7,8-dimethoxy-N,4-dimethyl-4,5-dihydro-3H-2,3-benzodiazepine-3-carboxamide] yielded an IC50 of 2580 nM. Work on `CNC(=O)N1N=C(c2ccc(N3CC4(COC4)C3)cc2)c2cc(OC)c(OC)cc2C[C@H]1C` [Example 5.2, (4R)-7,8-dimethoxy-N,4-dimethyl-1-[4-(2-oxa-6-azaspiro[3.3]hept-6-yl)phenyl]-4,5-dihydro-3H-2,3-benzodiazepine-3-carboxamide] yielded an IC50 of 1360 nM. With `CNC(=O)N1N=C(c2ccc(N3CC4(CN(C(=O)OC(C)(C)C)C4)C3)cc2)c2cc(OC)c(OC)cc2C[C@H]1C` [Example 8.2, tert-butyl 6-{4-[(4R)-7,8-dimethoxy-4-methyl-3-(melhylcarbamoyl)-4,5-dihydro-3H-2,3-benzodiazepine-1-yl]phenyl}-2,6-diazaspiro[3.3]heptane-2-carboxylate] the IC50 was 2050 nM. In the case of `CNC(=O)N1N=C(c2ccc(N3CCC4(CCCC4)CC3)cc2)c2cc(OC)c(OC)cc2C[C@@H]1C` [Example 9.1, (4S)-1-[4-(8-azaspiro[4.5]dec-8-yl)phenyl]-7,8-dimethoxy-N,4-dimethyl-4,5-dihydro-3H-2,3-benzodiazepine-3-carboxamide], the IC50 is reported as 200 nM. `CNC(=O)N1N=C(c2ccc(N3CCC4(CCCC4)CC3)cc2)c2cc(OC)c(OC)cc2C[C@H]1C` [Example 9.2, (4R)-1-[4-(8-azaspiro[4.5]dec-8-yl)phenyl]-7,8-dimethoxy-N,4-dimethyl-4,5-dihydro-3H-2,3-benzodiazepine-3-carboxamide] showed an IC50 of over 20000 nM. With `CNC(=O)N1N=C(c2ccc(N3CC4(CCS4(=O)=O)C3)cc2)c2cc(OC(F)(F)F)ccc2C[C@H]1C` [Example 18.1, (4R)-1-[4-(1,1-dioxido-1-thia-6-azaspiro[3.3]hept-6-yl)phenyl]-N,4-dimethyl-8-(trifluoromethoxy)-4,5-dihydro-3H-2,3-benzodiazepine-3-carboxamide] the IC50 was 11500 nM. `CNC(=O)N1N=C(c2ccc(N3C[C@@H]4C[C@H]3CO4)cc2)c2cc(OC)c(OC)cc2C[C@@H]1C` [Example 35, (4S)-7,8-dimethoxy-N,4-dimethyl-1-{4-[(1S,4S)-2-oxa-5-azabicyclo[2.2.1]hept-5-yl]phenyl}-4,5-dihydro-3H-2,3-benzodiazepine-3-carboxamide] gave an IC50 of 4110 nM.

The compounds below were run on MOLM-13 cells (assay: Cell proliferation assay (alamarBlue), MOLM-13). Settings: Homo sapiens, MOLM-13; acute myeloid leukaemia cell line, 96 h incubation.
Type: cell-based
Procedure: In accordance with the invention, the ability of the substances to inhibit cell proliferation was determined. Cell viability was determined by means of the alamarBlue® reagent (Invitrogen) in a Victor X3 Multilabel Reader (Perkin Elmer). The excitation wavelength was 530 nm and the emission wavelength […].
The MOLM-13 cells (DSMZ, ACC 554) were sown at a concentration of 4000 cells/well in 100 μl of growth medium (RPMI1640, 10% FCS) on 96-well microtitre plates.
The MDA-MB-231 cells (DSMZ, ACC 732) were sown at a concentration of 4000 cells/well in 100 μl of growth medium (DMEM/Ham's F12 medium, 10% FCS) on 96-well microtitre plates. After overnight incubation at 37° C., the fluorescence values (CI values) were determined. Then the plates were treated with various substance dilutions (1E-5 M, 3E-6 M, 1E-6 M, 3E-7 M, 1E-7 M, 3E-8 M, 1E-8 M) and incubated at 37° C. for 72 (MV4-11, LOX-IMVI cells), 96 (MOLM-13, B16F10, […] cells), 120 (MOLP-8, KMS-12-PE cells) or 168 (LAPC-4 cells) hours. Subsequently, the fluorescence values were determined (CO values). For the data analysis, the CI values were subtracted from the CO values and the results were compared between cells which had been treated with various dilutions of the substance or only with buffer solution. This was used to calculate the IC50 values (substance concentration required for 50% inhibition of cell proliferation).
The substances were examined in the cell lines of Table 1 which, in an exemplary manner, represent the stated indications: […]
Compound `CNC(=O)N1N=C(c2ccc(N3CC4(CCS4(=O)=O)C3)cc2)c2cc(OC)c(OC)cc2CC1C` (racemic) [Example 3, 1-[4-(1,1-dioxido-1-thia-6-azaspiro[3.3]hept-6-yl)phenyl]-7,8-dimethoxy-N,4-dimethyl-4,5-dihydro-3H-2,3-benzodiazepine-3-carboxamide] has an IC50 of 150 nM.
